{"source": "paper PMC11233931", "about": "“Remodeling tumor‐associated macrophage for anti‐cancer effects by rational design of irreversible inhibition of mitogen‐activated protein kinase‐activated protein kinase 2” (MedComm, 2024)", "key": {"MK2": {"molecular_target": "MK2 (Homo sapiens, UniProt P49137)", "sequence (P49137 whole entry)": "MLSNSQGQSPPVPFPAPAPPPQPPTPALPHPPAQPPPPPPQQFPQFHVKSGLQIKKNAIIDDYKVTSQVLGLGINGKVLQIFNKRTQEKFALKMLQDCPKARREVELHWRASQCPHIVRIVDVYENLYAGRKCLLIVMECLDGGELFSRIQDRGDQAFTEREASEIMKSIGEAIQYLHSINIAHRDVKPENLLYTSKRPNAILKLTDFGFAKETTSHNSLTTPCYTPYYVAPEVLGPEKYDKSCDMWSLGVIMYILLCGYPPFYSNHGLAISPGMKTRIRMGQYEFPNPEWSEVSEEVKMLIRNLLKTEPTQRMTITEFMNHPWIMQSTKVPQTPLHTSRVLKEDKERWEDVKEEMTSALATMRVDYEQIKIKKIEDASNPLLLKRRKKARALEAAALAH", "assay": "MK2 kinase inhibition assay (ADP-Glo)", "format": "biochemical", "settings": "mean ± SD of two independent tests", "method": "(§1) To assess the impact of various compounds on MK2 kinase activity, we utilized the ADP‐Glo Assay Kit (Promega) following the manufacturer's instructions. Luminescence measurements were taken using a SpectraMax Paradigm reader. The inhibition percentage was calculated using the following formula: ((specific signalDMSO control − specific signal inhibitor)/(specific signalDMSO control)) × 100%. The IC50 values were determined employing dose–response curve fitting via Prism (Graph Pad)."}, "MK3": {"molecular_target": "T1, MK3 (Homo sapiens, UniProt Q16644)", "T1 construct": "purchased Eurofins (Celle Lévescault)", "T1 sequence (Q16644 whole entry)": "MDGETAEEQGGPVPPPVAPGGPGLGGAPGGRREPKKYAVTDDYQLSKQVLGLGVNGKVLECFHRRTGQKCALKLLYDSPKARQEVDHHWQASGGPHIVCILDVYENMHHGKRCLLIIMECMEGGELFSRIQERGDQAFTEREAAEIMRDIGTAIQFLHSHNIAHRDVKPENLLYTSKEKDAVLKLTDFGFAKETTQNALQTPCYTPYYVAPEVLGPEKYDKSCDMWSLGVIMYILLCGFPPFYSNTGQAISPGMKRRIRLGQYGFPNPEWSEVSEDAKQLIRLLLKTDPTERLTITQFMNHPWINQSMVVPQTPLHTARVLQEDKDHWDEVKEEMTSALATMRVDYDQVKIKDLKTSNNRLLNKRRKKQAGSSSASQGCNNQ", "assay": "Eurofins kinase selectivity profile, MK3", "format": "biochemical", "method": "(§2) Subsequently, to ascertain whether the high potency of compound 11 was specific for MK2, an additional 380 human recombinant protein kinases were screened.\nas §1, with “Pad). Additionally, Eurofins company (Celle Lévescault) conducted the analysis on compound 11’s inhibitory activity against 380 other human recombinant kinases at various concentrations.” for “Pad).”"}, "MK5": {"molecular_target": "T2, MK5 (Homo sapiens, UniProt Q8IW41)", "T2 construct": "purchased Eurofins (Celle Lévescault)", "T2 sequence (Q8IW41 1-473)": "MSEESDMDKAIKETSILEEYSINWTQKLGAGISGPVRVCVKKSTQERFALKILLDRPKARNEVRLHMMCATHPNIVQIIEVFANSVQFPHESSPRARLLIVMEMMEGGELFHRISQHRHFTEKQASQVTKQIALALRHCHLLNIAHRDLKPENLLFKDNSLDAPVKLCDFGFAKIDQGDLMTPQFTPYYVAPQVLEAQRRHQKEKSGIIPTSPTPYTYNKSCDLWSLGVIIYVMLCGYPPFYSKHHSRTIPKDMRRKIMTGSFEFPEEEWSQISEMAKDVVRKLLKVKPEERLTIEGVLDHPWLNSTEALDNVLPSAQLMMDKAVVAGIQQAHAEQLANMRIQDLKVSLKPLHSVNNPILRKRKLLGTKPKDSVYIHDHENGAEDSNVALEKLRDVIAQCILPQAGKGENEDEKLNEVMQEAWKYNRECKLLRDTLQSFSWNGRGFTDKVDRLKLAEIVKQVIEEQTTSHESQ", "assay": "Eurofins kinase selectivity profile, MK5", "format": "biochemical", "method": "as §2\nas §1, with “Pad). Additionally, Eurofins company (Celle Lévescault) conducted the analysis on compound 11’s inhibitory activity against 380 other human recombinant kinases at various concentrations.” for “Pad).”"}, "[1]": {"tested_on": "CD206 expression in RAW264.7 cells", "assay": "Flow cytometry of CD206 in IL-4/IL-13 stimulated RAW264.7", "format": "cell-based, mouse", "settings": "RAW264.7, IL-4/IL-13, 48 h", "excerpt": "A previous study has reported that MK2 fostered M2‐like polarization of TAMs, driving a protumor and proangiogenic phenotype which in turn accelerates tumor progression.[21] We thus assessed the influence of compound 11 on macrophage polarization and function. Our experiments used human THP‐1 monocyte induced macrophages, mouse RAW264.7 macrophages, and mouse bone marrow‐derived macrophages (BMDM). These cells were induced into M2‐like macrophages using the classic IL‐4 and IL‐13 stimuli.\nIn the in vitro analysis, cells were harvested, stained with surface antibodies, and subsequently fixed and permeabilized using IC Buffer following manufacturer's guidelines. Antibodies targeting intracellular molecules were used for further staining as cells were incubated for an additional 30 min at 4°C. These cells were then filtered using a 300‐mesh cell sieve prior to analysis via CytoFLEX (Beckman Coulter Life Sciences).\nFigure S3 Inhibition of pro-tumorigenic M2-like polarization in macrophages by compound 11. (A) Illustrates the treatment effects on various macrophage cells using Western blot analysis post IL-4/IL-13 exposure (30 minutes or the specified time period). (B) Examines CD206 expression in RAW264.7 cells via flow cytometry post 48hours treatment of compound 11 and IL-4/IL-13. […] IL-4/IL-13 (20 ng/mL) served as the stimulation control, while untreated cells were the baseline control. […]"}, "[2]": {"assay": "Cell viability assay (CCK-8), PANC-1", "format": "cell-based", "settings": "PANC-1 cells (pancreatic carcinoma), PANC-1, human pancreatic carcinoma, read-out: IC50 (μM) mean ± SD, cytotoxicity", "method": "In cellular experiments, cells are seeded into either 6-well or 96-well plates and incubated overnight, proceeding with treatments as described in the figure legends or methods section. The cell inoculation numbers are outlined as follows: For assays measuring cell viability, between 3,000 to 5,000 cells are seeded per well in 96-well plates. For other cellular assays, the seeding density ranges from 5×10^5 to 1×10^6 cells per well in 6-well plates.\nCells was plated into 96-well plates and incubated overnight prior to introduction of varying concentrations of compounds or control solvent. Following a 72-hour exposure period, cell viability was determined using a Cell Counting Kit-8 assay (Life-iLab, China). Dose-response curves were fitted using a four-parameter method facilitated by SoftMax Pro, which was subsequently used for the computation of IC50 values."}}, "data": [{"smiles": "C=CC(=O)Nc1cc(-c2cc(-c3cc4c([nH]3)CCNC4=O)ccn2)ccc1OC(F)(F)F", "note": "[compound 11]", "values": [{"measurement": "IC50", "setting": "MK2", "value": 2.3, "unit": "nM"}, {"measurement": "IC50", "setting": "MK3", "value": "> 100", "unit": "nM"}, {"measurement": "inhibition at 0.001 µM", "setting": "MK3; MAPKAP-K3(h), 1 nM, read-out: Inhibition rate", "value": -10, "unit": "%"}, {"measurement": "inhibition at 0.01 µM", "setting": "MK3; MAPKAP-K3(h), 10 nM, read-out: Inhibition rate", "value": 1, "unit": "%"}, {"measurement": "inhibition at 0.1 µM", "setting": "MK3; MAPKAP-K3(h), 100 nM, read-out: Inhibition rate", "value": 12, "unit": "%"}, {"measurement": "IC50", "setting": "MK5", "value": "> 100", "unit": "nM"}, {"measurement": "inhibition at 0.001 µM", "setting": "MK5; MAPKAP-K5/PRAK(h), 1 nM, read-out: Inhibition rate", "value": -21, "unit": "%"}, {"measurement": "inhibition at 0.01 µM", "setting": "MK5; MAPKAP-K5/PRAK(h), 10 nM, read-out: Inhibition rate", "value": 6, "unit": "%"}, {"measurement": "inhibition at 0.1 µM", "setting": "MK5; MAPKAP-K5/PRAK(h), 100 nM, read-out: Inhibition rate", "value": 29, "unit": "%"}, {"measurement": "effect on CD206 expression", "setting": "[1]", "value": "A similar result"}, {"measurement": "IC50 at 72 h", "setting": "[2]", "value": "35.3 ± 1.4", "unit": "µM"}]}]}
